Data: patent US4735943A, “Eburnamonine oxime derivatives, salts thereof, and pharmaceutical agents containing the same” (Sanwa Kagaku Kenkyusho Co., Ltd., priority 1984, dated 1988)

Legend:
[1] = tested on: erythrocyte deformability; experiment: Acceleration on Erythrocyte Deformability (filtration-pressure method); type: in vivo, Wister male rats; settings: rats, 10 mg/kg oral, blood 1 h after administration, 0.1% erythrocyte suspension
Protocol: (Acceleration on Erythrocyte Deformability) Each of testing compounds was orally administered to an amount of 10 mg/kg to Wister male rats (about 250 g, 5 animals/group). After one hour from the administration, blood sample was collected to prepare 0.1% erythrocyte suspension. An action of the compound to an erythrocyte deformability was studied in accordance with a filtration-pressure method to obtain results as shown in following Table 5.

[2] = in vivo; settings: mouse, male mice, oral, mortality after 72 hours
[3] = tested on: blood flow in vertebral artery; experiment: Cerebral Blood Flow Increase (blood flow in vertebral artery, electromagnetic rheometer); type: in vivo; settings: anesthetized mongrel dogs, 1.0 mg/dog into vertebral artery
Protocol: (Cerebral Blood Flow Increase) Male and female mongrel dogs anesthetized with nembutal (sodium pentobarbital) were employed as subject and a blood flow in vertebral artery of those animals were measured with use of an electromagnetic rheometer. Each of testing compounds was administered to vertebral artery in a ratio of 1.0 mg/dog to determine a change in blood flow in the vertebral artery.

[4] = tested on: brain of rats with an essential hypertension (SHR); experiment: Cerebral Metabolic Activation (cerebral ischemia by ligation of both common carotid arteries); type: in vivo, male); settings: 10 mg/kg oral 1 h after ligation, measured 5 h after ligation
Protocol: (Cerebral Metabolic Activation) According to a known method [Fujishima et al, "Rinshou-to-Kenkyu (The Clinics and Studies)" 51, 3532, 1974], both common carotid arteries of rats with an essential hypertension (SHR, male, 250-350 g, 4 to 5 animals/group) were ligated to cause a cerebral ischemia. After one hour from the ligation, each of testing compounds was orally administered in an amount of 10 mg/kg and various parameters in brain were measured at the time having lapsed 5 hours from the ligation.

[5] = tested on: d,d-mice; experiment: Cerebral Function Protection (recovery after rod dropped on vertex); type: in vivo, male; settings: 10 mg/kg oral, 30 min before, negative values given as "not effective"
Protocol: (Cerebral Function Protection) To each of male d,d-mice (16-24 g, 6 to 24 animals/group), each of testing compounds was orally administered in an amount of 10 mg/kg. After 30 minutes from the administration, a cylindrical rod made of bakelite (diameter: 1 cm, weight: 36 g) was free dropped with a level height of 40 cm on a vertex of the mouse to hypnotize the same, in accordance with a method disclosed by […] et al ["Tyaku-no-Ayumi (The Progress in Medicines)", 104 (4), 253, 1978]. Observations were continued until a recovering reflex from the lethargy and a spontaneous motion appear to determine a reduction ratio of time period on such behavior appearances.

[6] = tested on: ADP aggregation of platelets; experiment: Depression on Blood Platelet Aggregation, ADP; type: cell-based, Wister male rat; settings: in vitro, rat platelet plasma, read-out: depression Ratio to ADP; for inhibition at 10 µg/mL: final conc. 10 μg/ml, negative values given as "not effective"
From the text: (§1) (Depression on Blood Platelet Aggregation) With use of a blood-plasma with excess platelets (obtained from a Wister male rat, about 250 g), a depressing effect of each testing compound to ADP and collagen aggregations was studied in vitro (3 to 5 samples/group).Results are shown in following Table 4.

[7] = tested on: collagen aggregation of platelets; experiment: Depression on Blood Platelet Aggregation, collagen; type: cell-based, Wister male rat; settings: in vitro, rat platelet plasma, read-out: depression Ratio to Collagen; for inhibition at 10 µg/mL: final conc. 10 μg/ml
From the text: as §1

Structure (SMILES) | Reduction Rate in Filtering Pressure [1] [%] | LD50 at 72 h [2] [mg/kg] | Increase in Blood Flow [3] [%] | Amount of ATP in brain [4] [µmol/g] | Amount of Glucose in brain [4] [nmol/g] | Amount of Lactic acid in brain [4] [µmol/g] | Reduction ratio, time to appear spontaneous motion [5] [%] | Reduction ratio, time to recover sit-up reflex [5] [%] | inhibition at 2 µg/mL ([6]; final conc. 2 μg/ml) [%] | inhibition at 2 µg/mL ([7]; final conc. 2 μg/ml) [%] | inhibition at 10 µg/mL [6] [%] | inhibition at 10 µg/mL [7] [%]
CCN(CC)CCON=C1C[C@]2(CC)CCCN3CCc4c(n1c1ccccc41)[C@@H]32 [Example 2, (3α,16α)-eburnamenin-14(15H)-one O-[2-(N,N-diethylamino)ethyl]oxime] | 6.0 | 611 | 269.5 | 0.36 | 1030 | 4.62 | 48.7 | 54.3 | 5.7 | 73.8 | – | –
CC[C@]12CCCN3CCc4c(n(c5ccccc45)C(=NOCCN(C)C)C1)[C@@H]32 [Example 3, (3α,16α)-eburnamenin-14(15H)-one O-[2-(N,N-dimethylamino)ethyl]oxime] | 10.2 | 700 | 247.3 | 0.18 | 740 | 7.01 | -11.3 | -33.0 | – | – | 5 | 3.2
CC[C@]12CCCN3CCc4c(n(c5ccccc45)C(=NOCCN4CCCC4)C1)[C@@H]32 [Example 4, (3α,16α)-eburnamenin-14(15H)-one O-[2-(1-pyrrolidinyl)ethyl]oxime] | 9.3 | 532 | 260.6 | 0.25 | 896 | 6.34 | -71.6 | -96.1 | – | – | -10 | 4.4
CC[C@]12CCCN3CCc4c(n(c5ccccc45)C(=NOCCN4CCN(c5ccccc5OC)CC4)C1)[C@@H]32 [Example 5, (3α,16α)-eburnamenin 14(15H)-one O-{2-[4-(2-methoxyphenyl)-1-piperazinyl]ethyl}oxime] | 13.2 | 660 | 179.3 | 0.28 | 802 | 5.50 | 6.9 | 0.4 | – | – | 5.5 | 9.3
CC[C@]12CCCN3CCc4c(n(c5ccccc45)C(=NOCC(O)CN4CCN(c5ccccc5OC)CC4)C1)[C@@H]32 (stereo partly drawn) [Example 6, (3α,16α)-eburnamenin-14(15H)-one O-{2-hydroxy-3-[4-(2-methoxyphenyl)-1-piperazinyl]propyl}oxime] | 35.1 | 560 | 357.7 | 0.32 | 1010 | 4.95 | 47.2 | 23.5 | – | – | 6.3 | 9.5
CC[C@]12CCCN3CCc4c(n(c5ccccc45)C(=NO)C1)[C@@H]32 [Reference Example, (3α,16α)-eburnamenin-14(15H)-one oxime] | 8.3 | 510 | 144.9 | 0.20 | 592 | 7.10 | -5.3 | -12.4 | – | – | -1.2 | 5.4
CCOC(=O)C1=C[C@]2(CC)CCCN3CCc4c(n1c1ccccc41)[C@@H]32 [vinpocetine, reference compound] | 46.3 | – | 261.4 | 0.36 | 1120 | 7.00 | – | – | – | – | -0.2 | 4
